Results from patent publication EP4745137A1 (Gluetacs Therapeutics (Shanghai) Co., Ltd., priority 2023, dated 2025).

How the values were obtained:
IKZF1 = molecular target: T1, IKZF1 (Homo sapiens, UniProt Q13422+Q96SW2); assay: Western-blot assay of substrate protein degradation in hPBMCs, IKZF1; format: cell-based; settings: 24 hours of compound treatment, compounds tested at 50 nM and 500 nM (concentration of the table not stated)
T1 construct: endogenous in cells; host or cells: hPBMCs (Milecell Biotechnologies)
T1 sequence (Q13422 whole entry): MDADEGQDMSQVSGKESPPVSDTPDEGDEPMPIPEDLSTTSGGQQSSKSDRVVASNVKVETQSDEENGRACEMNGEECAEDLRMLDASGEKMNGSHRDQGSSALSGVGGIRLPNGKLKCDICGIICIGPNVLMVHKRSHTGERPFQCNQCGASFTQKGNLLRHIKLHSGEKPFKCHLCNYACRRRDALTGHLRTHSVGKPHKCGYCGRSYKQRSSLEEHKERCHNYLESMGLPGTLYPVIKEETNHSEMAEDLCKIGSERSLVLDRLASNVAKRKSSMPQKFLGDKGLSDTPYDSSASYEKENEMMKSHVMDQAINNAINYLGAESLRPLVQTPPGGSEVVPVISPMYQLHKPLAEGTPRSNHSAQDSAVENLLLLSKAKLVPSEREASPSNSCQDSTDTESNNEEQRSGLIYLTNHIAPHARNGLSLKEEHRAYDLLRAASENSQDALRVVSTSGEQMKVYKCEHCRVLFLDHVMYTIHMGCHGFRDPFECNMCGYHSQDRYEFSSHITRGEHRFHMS
T1 sequence (Q96SW2 whole entry): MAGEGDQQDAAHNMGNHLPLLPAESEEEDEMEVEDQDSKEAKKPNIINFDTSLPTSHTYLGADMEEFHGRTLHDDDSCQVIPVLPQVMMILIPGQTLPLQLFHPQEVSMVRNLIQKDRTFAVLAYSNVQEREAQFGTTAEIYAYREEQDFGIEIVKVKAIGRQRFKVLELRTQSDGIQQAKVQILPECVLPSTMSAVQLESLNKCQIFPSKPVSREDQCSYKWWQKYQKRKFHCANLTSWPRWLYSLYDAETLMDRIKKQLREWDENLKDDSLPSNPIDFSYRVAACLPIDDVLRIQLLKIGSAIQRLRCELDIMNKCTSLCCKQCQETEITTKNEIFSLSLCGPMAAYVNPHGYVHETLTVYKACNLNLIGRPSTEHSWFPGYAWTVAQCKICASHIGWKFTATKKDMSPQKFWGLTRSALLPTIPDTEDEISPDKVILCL
T1 sequence (Q16531 whole entry partner): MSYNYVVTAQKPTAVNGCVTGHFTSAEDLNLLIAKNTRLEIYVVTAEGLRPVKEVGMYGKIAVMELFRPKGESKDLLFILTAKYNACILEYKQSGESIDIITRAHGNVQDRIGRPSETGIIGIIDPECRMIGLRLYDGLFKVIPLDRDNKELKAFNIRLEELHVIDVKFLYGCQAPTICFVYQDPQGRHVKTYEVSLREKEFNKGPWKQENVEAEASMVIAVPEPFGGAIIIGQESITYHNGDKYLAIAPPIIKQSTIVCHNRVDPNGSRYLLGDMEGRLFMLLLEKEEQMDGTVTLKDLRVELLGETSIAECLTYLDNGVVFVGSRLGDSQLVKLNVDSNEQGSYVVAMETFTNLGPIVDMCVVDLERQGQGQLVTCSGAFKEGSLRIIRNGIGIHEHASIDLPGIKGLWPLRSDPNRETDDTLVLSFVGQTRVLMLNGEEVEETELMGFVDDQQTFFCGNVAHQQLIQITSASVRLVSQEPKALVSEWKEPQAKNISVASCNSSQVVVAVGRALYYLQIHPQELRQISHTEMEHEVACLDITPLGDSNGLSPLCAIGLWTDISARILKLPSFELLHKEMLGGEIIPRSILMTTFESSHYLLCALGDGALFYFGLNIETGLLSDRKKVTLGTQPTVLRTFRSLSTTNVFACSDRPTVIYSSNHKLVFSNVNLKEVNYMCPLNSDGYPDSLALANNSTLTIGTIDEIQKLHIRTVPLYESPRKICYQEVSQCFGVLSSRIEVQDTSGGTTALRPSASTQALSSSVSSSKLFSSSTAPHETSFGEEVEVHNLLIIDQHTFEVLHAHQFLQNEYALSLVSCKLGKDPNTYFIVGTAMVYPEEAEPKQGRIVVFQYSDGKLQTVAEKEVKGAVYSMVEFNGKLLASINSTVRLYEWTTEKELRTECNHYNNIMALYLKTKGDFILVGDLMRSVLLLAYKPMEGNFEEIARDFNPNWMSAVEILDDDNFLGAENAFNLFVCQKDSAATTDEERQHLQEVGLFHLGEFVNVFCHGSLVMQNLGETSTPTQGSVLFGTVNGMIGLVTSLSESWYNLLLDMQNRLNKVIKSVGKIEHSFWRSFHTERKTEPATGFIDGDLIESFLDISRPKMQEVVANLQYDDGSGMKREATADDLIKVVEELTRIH

GSPT1 = molecular target: T2, GSPT1 (Homo sapiens, UniProt P15170+Q96SW2); assay: Western-blot assay of substrate protein degradation in hPBMCs, GSPT1; format: cell-based; settings: 24 hours of compound treatment, compounds tested at 50 nM and 500 nM (concentration of the table not stated)
T2 construct: endogenous in cells; host or cells: hPBMCs (Milecell Biotechnologies)
T2 sequence (P15170 whole entry): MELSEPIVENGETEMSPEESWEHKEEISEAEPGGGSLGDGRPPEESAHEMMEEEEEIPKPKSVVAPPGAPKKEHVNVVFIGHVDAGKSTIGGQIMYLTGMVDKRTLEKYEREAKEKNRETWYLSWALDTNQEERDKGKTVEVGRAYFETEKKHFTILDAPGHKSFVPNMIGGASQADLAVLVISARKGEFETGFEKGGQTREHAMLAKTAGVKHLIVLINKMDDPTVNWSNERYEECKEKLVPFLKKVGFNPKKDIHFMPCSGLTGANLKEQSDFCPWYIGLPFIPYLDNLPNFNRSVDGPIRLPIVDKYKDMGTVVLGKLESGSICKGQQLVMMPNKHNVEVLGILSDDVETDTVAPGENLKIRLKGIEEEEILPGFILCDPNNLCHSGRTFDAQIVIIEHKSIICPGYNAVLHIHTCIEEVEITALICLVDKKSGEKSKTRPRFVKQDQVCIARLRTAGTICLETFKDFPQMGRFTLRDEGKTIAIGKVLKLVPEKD
T2 sequence (Q96SW2 whole entry): as the sequence (Q96SW2 whole entry) above
T2 sequence (Q16531 whole entry partner): as the sequence (Q16531 whole entry partner) above

IKZF3 = molecular target: T3, IKZF3 (Homo sapiens, UniProt Q96SW2+Q9UKT9); assay: Western-blot assay of substrate protein degradation in hPBMCs, IKZF3; format: cell-based; settings: 24 hours of compound treatment, compounds tested at 50 nM and 500 nM (concentration of the table not stated)
T3 construct: endogenous in cells; host or cells: hPBMCs (Milecell Biotechnologies)
T3 sequence (Q9UKT9 whole entry): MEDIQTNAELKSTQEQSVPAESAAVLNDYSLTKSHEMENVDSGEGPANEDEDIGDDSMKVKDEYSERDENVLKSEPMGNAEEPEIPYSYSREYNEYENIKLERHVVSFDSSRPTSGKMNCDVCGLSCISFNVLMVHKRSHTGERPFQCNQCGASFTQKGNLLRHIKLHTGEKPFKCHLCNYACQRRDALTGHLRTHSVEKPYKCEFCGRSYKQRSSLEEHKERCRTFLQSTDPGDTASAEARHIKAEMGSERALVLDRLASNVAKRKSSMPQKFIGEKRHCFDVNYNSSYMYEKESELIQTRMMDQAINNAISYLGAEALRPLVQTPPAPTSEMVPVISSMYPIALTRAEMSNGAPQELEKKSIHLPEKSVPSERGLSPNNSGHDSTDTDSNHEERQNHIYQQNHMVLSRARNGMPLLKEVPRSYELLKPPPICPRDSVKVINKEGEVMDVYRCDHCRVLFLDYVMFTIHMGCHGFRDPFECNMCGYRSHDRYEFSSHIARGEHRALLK
T3 sequence (Q96SW2 whole entry): as the sequence (Q96SW2 whole entry) above
T3 sequence (Q16531 whole entry partner): as the sequence (Q16531 whole entry partner) above

WEE1 = molecular target: T4, WEE1 (Homo sapiens, UniProt P30291+Q96SW2); assay: Western-blot assay of substrate protein degradation in hPBMCs, WEE1; format: cell-based; settings: 24 hours of compound treatment, compounds tested at 50 nM and 500 nM (concentration of the table not stated)
T4 construct: endogenous in cells; host or cells: hPBMCs (Milecell Biotechnologies)
T4 sequence (P30291 whole entry): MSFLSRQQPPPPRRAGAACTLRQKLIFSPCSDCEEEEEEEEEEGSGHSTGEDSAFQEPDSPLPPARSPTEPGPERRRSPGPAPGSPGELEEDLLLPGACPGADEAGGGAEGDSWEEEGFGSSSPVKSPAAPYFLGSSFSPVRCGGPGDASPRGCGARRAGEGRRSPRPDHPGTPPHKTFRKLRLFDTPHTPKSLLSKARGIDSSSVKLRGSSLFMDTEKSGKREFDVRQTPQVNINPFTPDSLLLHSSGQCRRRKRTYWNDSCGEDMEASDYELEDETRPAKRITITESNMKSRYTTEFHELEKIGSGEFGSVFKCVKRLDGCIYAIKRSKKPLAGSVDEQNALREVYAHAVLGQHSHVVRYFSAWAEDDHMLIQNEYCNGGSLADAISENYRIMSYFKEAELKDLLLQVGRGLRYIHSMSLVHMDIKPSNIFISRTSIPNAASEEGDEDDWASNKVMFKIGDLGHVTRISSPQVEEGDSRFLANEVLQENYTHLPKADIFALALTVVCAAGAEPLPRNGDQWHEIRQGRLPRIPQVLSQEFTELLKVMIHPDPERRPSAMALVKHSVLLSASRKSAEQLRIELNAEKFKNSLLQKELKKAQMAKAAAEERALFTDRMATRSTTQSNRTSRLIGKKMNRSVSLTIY
T4 sequence (Q96SW2 whole entry): as the sequence (Q96SW2 whole entry) above
T4 sequence (Q16531 whole entry partner): as the sequence (Q16531 whole entry partner) above

IKZF2 = molecular target: T5, IKZF2 (Homo sapiens, UniProt Q96SW2+Q9UKS7); assay: Western-blot assay of substrate protein degradation in hPBMCs, IKZF2; format: cell-based; settings: 24 hours of compound treatment, compounds tested at 50 nM and 500 nM (concentration of the table not stated)
T5 construct: endogenous in cells; host or cells: hPBMCs (Milecell Biotechnologies)
T5 sequence (Q9UKS7 whole entry): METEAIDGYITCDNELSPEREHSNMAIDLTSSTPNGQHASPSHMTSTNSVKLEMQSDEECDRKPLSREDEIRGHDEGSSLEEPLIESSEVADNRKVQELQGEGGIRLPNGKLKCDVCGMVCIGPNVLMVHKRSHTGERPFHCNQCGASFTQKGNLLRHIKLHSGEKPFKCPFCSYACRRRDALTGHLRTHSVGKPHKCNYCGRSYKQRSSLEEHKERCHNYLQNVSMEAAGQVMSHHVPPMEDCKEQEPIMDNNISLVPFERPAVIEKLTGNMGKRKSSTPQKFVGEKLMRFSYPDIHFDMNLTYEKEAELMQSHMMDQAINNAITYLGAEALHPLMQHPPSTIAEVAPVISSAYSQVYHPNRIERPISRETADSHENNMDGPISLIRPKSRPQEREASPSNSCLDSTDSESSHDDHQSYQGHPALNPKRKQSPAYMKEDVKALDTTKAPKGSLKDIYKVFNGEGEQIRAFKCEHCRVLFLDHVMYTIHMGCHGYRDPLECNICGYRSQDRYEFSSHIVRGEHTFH
T5 sequence (Q96SW2 whole entry): as the sequence (Q96SW2 whole entry) above
T5 sequence (Q16531 whole entry partner): as the sequence (Q16531 whole entry partner) above

CK1α = molecular target: T6, CK1α (Homo sapiens, UniProt P48729+Q96SW2); assay: Western-blot assay of substrate protein degradation in hPBMCs, CK1α; format: cell-based; settings: 24 hours of compound treatment, compounds tested at 50 nM and 500 nM (concentration of the table not stated)
T6 construct: endogenous in cells; host or cells: hPBMCs (Milecell Biotechnologies)

MM.1S = assay: Tumor cell proliferation inhibition (CellTiter-Meiluncell Luminescent Cell Viability Assay), MM.1S; settings: Homo sapiens, MM1.S, read-out: inhibitory activity (IC50, nM) against tumor cells proliferation, MM.1S
Method: (§1) The tumor cells used herein were cultured in a cell culture medium listed in table 2 at 37°C in an incubator with 5% CO2. Prior to experimentation, all cell lines used were correctly identified by STR profiling, and tested negative for mycoplasma contamination using a mycoplasma detection kit through routine screenings.
On the following day, the test compounds of the present disclosure were subjected to serial dilution. […] Subsequently, 0.5 µL of the test compound dilution was transferred into the 96-well plate containing the cells, with each well containing 100 µL of cell culture medium. […] Into the 96-well plate, the diluted test compounds and corresponding detection reagents were added, resulting in final test compound concentrations of 500 nM and 10 nM, respectively.
(§2) After the cells were treated with the compounds of the present disclosure for a specified period (the treatment durations were shown in Table 3), the cell viability assay reagent was added to the culture medium according to the kit's instructions to determine cell viability. […] All controls were treated using the same procedure as the compounds of the present disclosure. The growth inhibition curves for the compounds of the present disclosure were plotted using Prism GraphPad software, and the IC50 values were calculated therefrom.

[1] = molecular target: T7, human Cereblon WT GST-tagged protein (Homo sapiens, UniProt Q96SW2); assay: CRBN-binding affinity by HTRF (CEREBLON BINDING kit); settings: HTRF inhibitory activity, CEREBLON BINDING kit; read-out: HTRF IC50
T7 construct: purchased CISBIO 64BDCRBNPEH
T7 sequence (Q96SW2 whole entry): as the sequence (Q96SW2 whole entry) above

NCI-H1975 = assay: Tumor cell proliferation inhibition (CellTiter-Meiluncell Luminescent Cell Viability Assay), NCI-H1975; settings: Homo sapiens, NCI-H1975, read-out: inhibitory activity (IC50, nM) against tumor cells proliferation, H1975
Jurkat = assay: Tumor cell proliferation inhibition (CellTiter-Meiluncell Luminescent Cell Viability Assay), Jurkat; settings: Homo sapiens, read-out: inhibitory activity (IC50, nM) against tumor cells proliferation, Jurkat
Method: as §1
On the following day, the test compounds of the present disclosure were subjected to serial dilution. […] Subsequently, 0.5 µL of the test compound dilution was transferred into the 96-well plate containing the cells, with each well containing 100 µL of cell culture medium. […] Into the 96-well plate, the diluted test compounds and corresponding detection reagents were added, resulting in final test compound concentrations of 500 nM and 10 nM, respectively. The experimental procedure is described below using the diluted 2 µM test compound as an example.
as §2

Compound | IC50 (MM.1S) | IC50 [1] | IC50 (NCI-H1975) | IC50 (Jurkat) | IKZF 1 substrate protein remaining % (IKZF1) | GSPT1 substrate protein remaining % (GSPT1) | IKZF3 substrate protein remaining % (IKZF3) | Weel substrate protein remaining % (WEE1) | IKZF2 substrate protein remaining % (IKZF2) | CK1a substrate protein remaining % (CK1α)
O=C1CCC(N2Cc3cc(CN4CCC(N5CCOc6cc(F)ccc65)CC4)ccc3C2=O)C(=O)N1 (stereo not shown) [GT-04859, 3-(5-((4-(7-fluoro-2,3-dihydro-4H-benzo[b][1,4]oxazin-4-yl)piperidin-1-yl)methyl)-1-oxoisoindolin-2-yl)piperidine-2,6-dione] | 50 to 100 nM | < 500 nM | – | – | A (0% ≤ substrate protein remaining % ≤ 80%) | A (0% ≤ substrate protein remaining % ≤ 80%) | A (0% ≤ substrate protein remaining % ≤ 80%) | B (80%< substrate protein remaining %≤ 100%) | A (0% ≤ substrate protein remaining % ≤ 80%) | B (80%< substrate protein remaining %≤ 100%)
O=C1CCC(N2C(=O)c3ccc(CN4CCN(c5cccc6sccc56)CC4)cc3C2=O)C(=O)N1 (stereo not shown) [GT-04915, 5-((4-(benzo[b]thiophen-4-yl)piperazin-1-yl)methyl)-2-(2,6-dioxopiperidin-3-yl)isoindoline-1,3-dione] | 100 to 500 nM | – | 500 to 1000 nM | 100 to 500 nM | A (0% ≤ substrate protein remaining % ≤ 80%) | A (0% ≤ substrate protein remaining % ≤ 80%) | A (0% ≤ substrate protein remaining % ≤ 80%) | A (0% ≤ substrate protein remaining % ≤ 80%) | A (0% ≤ substrate protein remaining % ≤ 80%) | A (0% ≤ substrate protein remaining % ≤ 80%)
O=C1CCC(N2Cc3cc(CN4CC5CCC4CN5c4cccc(Cl)c4Cl)ccc3C2=O)C(=O)N1 (stereo not shown) [GT-04930, 3-(5-((5-(2,3-dichlorophenyl)-2,5-diazabicyclo[2.2.2]octan-2-yl)methyl)-1-oxoisoindolin-2-yl)piperidine-2,6-dione] | 10 to 50 nM | < 500 nM | – | – | A (0% ≤ substrate protein remaining % ≤ 80%) | A (0% ≤ substrate protein remaining % ≤ 80%) | A (0% ≤ substrate protein remaining % ≤ 80%) | A (0% ≤ substrate protein remaining % ≤ 80%) | A (0% ≤ substrate protein remaining % ≤ 80%) | B (80%< substrate protein remaining %≤ 100%)
Cc1nc(C2=CCN(Cc3ccc4c(c3)CN(C3CCC(=O)NC3=O)C4=O)CC2)c2c3c(sc2n1)CCC3 (stereo not shown) [GT-05211, 3-(5-((4-(2-methyl-6,7-dihydro-5H-cyclopenta[4,5]thieno[2,3-d]pyrimidin-4-yl)-3,6-dihydropyridin-1(2H)-yl)methyl)-1-oxoisoindolin-2-yl)piperidine-2,6-dione] | 50 to 100 nM | < 500 nM | – | – | A (0% ≤ substrate protein remaining % ≤ 80%) | A (0% ≤ substrate protein remaining % ≤ 80%) | A (0% ≤ substrate protein remaining % ≤ 80%) | A (0% ≤ substrate protein remaining % ≤ 80%) | A (0% ≤ substrate protein remaining % ≤ 80%) | A (0% ≤ substrate protein remaining % ≤ 80%)

Now from value to compound, other results behind:

IC50 (MM.1S) | IC50 [1] | IC50 (NCI-H1975) | IC50 (Jurkat) | Compound | IKZF 1 substrate protein remaining % (IKZF1) | GSPT1 substrate protein remaining % (GSPT1) | IKZF3 substrate protein remaining % (IKZF3) | Weel substrate protein remaining % (WEE1) | IKZF2 substrate protein remaining % (IKZF2) | CK1a substrate protein remaining % (CK1α)
10 to 50 nM | < 500 nM | – | – | Cc1nc(C2=CCN(Cc3ccc4c(c3)CN(C3CCC(=O)NC3=O)C4=O)CC2)c2c3c(sc2n1)CCCC3 (stereo not shown) [GT-04863, 3-(5-((4-(2-methyl-5,6,7,8-tetrahydrobenzo[4,5]thieno[2,3-d]pyrimidin-4-yl)-3,6-dihydropyridin-1 (2H)-yl)methyl)-1-oxoisoindolin-2-yl)piperidine-2,6-dione] | A (0% ≤ substrate protein remaining % ≤ 80%) | A (0% ≤ substrate protein remaining % ≤ 80%) | A (0% ≤ substrate protein remaining % ≤ 80%) | A (0% ≤ substrate protein remaining % ≤ 80%) | A (0% ≤ substrate protein remaining % ≤ 80%) | A (0% ≤ substrate protein remaining % ≤ 80%)
5 to 10 nM | < 500 nM | – | – | O=C1CCC(N2Cc3cc(CN4C[C@@H]5C[C@H]4CN5c4cccc(Cl)c4Cl)ccc3C2=O)C(=O)N1 (stereo partly drawn) [GT-04898, 3-(5-(((1S,4S)-5-(2,3-dichlorophenyl)-2,5-diazabicyclo[2.2.1]heptan-2-yl)methyl)-1-oxoisoindolin-2-yl)piperidine-2,6-dione] | A (0% ≤ substrate protein remaining % ≤ 80%) | A (0% ≤ substrate protein remaining % ≤ 80%) | A (0% ≤ substrate protein remaining % ≤ 80%) | B (80%< substrate protein remaining %≤ 100%) | A (0% ≤ substrate protein remaining % ≤ 80%) | B (80%< substrate protein remaining %≤ 100%)
10 to 50 nM | < 500 nM | – | – | Cc1nc(N2CCN(Cc3ccc4c(c3)CN(C3CCC(=O)NC3=O)C4=O)CC2)c2c3c(sc2n1)CCCC3 (stereo not shown) [GT-04900, 3-(5-((4-(2-methyl-5,6,7,8-tetrahydrobenzo[4,5]thieno[2,3-d]pyrimidin-4-yl)piperazin-1-yl)methyl)-1-oxoisoindolin-2-yl)piperidine-2,6-dione] | A (0% ≤ substrate protein remaining % ≤ 80%) | B (80%< substrate protein remaining %≤ 100%) | A (0% ≤ substrate protein remaining % ≤ 80%) | B (80%< substrate protein remaining %≤ 100%) | A (0% ≤ substrate protein remaining % ≤ 80%) | A (0% ≤ substrate protein remaining % ≤ 80%)
10 to 50 nM | < 500 nM | – | – | O=C1CCC(N2Cc3cc(CN4CCC(C5CCOc6cc(F)ccc65)CC4)ccc3C2=O)C(=O)N1 (stereo not shown) [GT-04901, 3-(5-((4-(7-fluorochroman-4-yl)piperidin-1-yl)methyl)-1-oxoisoindolin-2-yl)piperidine-2,6-dione] | A (0% ≤ substrate protein remaining % ≤ 80%) | B (80%< substrate protein remaining %≤ 100%) | A (0% ≤ substrate protein remaining % ≤ 80%) | B (80%< substrate protein remaining %≤ 100%) | A (0% ≤ substrate protein remaining % ≤ 80%) | B (80%< substrate protein remaining %≤ 100%)
10 to 50 nM | < 500 nM | – | – | O=C1CCC(N2Cc3cc(CN4CCN(c5nc(N6CCOCC6)nc6ccsc56)CC4)ccc3C2=O)C(=O)N1 (stereo not shown) [GT-04903, 3-(5-((4-(2-morpholinothieno[3,2-d]pyrimidin-4-yl)piperazin-1-yl)methyl)-1-oxoisoindolin-2-yl)piperidine-2,6-dione] | B (80%< substrate protein remaining %≤ 100%) | A (0% ≤ substrate protein remaining % ≤ 80%) | A (0% ≤ substrate protein remaining % ≤ 80%) | B (80%< substrate protein remaining %≤ 100%) | A (0% ≤ substrate protein remaining % ≤ 80%) | A (0% ≤ substrate protein remaining % ≤ 80%)
